Results published in ChEMBL document CHEMBL1201862, “PubChem BioAssay data set” (2004).
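1) Cells in 96-well plates. 2) Compound, 48 h, 5 concentrations. 3) Linear interpolation between surrounding doses. 4) Unreached endpoint = highest concentration. Abbreviation: GI50, concentration required for 50% inhibition of growth.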 Activity calls are given as the source filed them. No stated cut-off is given here; in the data, active = GI50 up to about 1.1 µM and inactive = higher.

Key:
Experiment in all cases: growth of human tumour cells (NCI), 48 h
MDA-N = test system: MDA-N
HOP-62 = test system: HOP-62
RPMI-8226 = test system: RPMI-8226
U-251 = test system: U-251
NCI-H226 = test system: NCI-H226
HT-29 = test system: HT-29
ACHN = test system: ACHN
T47D = test system: T47D
SK-MEL-5 = test system: SK-MEL-5
OVCAR-3 = test system: OVCAR-3
NCI-H460 = test system: NCI-H460
Malme-3M = test system: Malme-3M
SNB-19 = test system: SNB-19
EKVX = test system: EKVX
TK-10 = test system: TK-10
SK-OV-3 = test system: SK-OV-3
OVCAR-4 = test system: OVCAR-4
CAKI-1 = test system: CAKI-1
SN12C = test system: SN12C

Measured: GI50

CN(NC(=O)c1cccs1)C1=NCCCCN1
inactive: MDA-N > 100 µM | HOP-62 > 100 µM | RPMI-8226 > 100 µM | U-251 > 100 µM | NCI-H226 > 100 µM | HT-29 > 100 µM | ACHN > 100 µM | T47D > 100 µM | SK-MEL-5 > 100 µM | OVCAR-3 > 100 µM | NCI-H460 > 100 µM | Malme-3M > 100 µM | SNB-19 > 100 µM | EKVX > 100 µM | TK-10 > 100 µM | SK-OV-3 > 100 µM | OVCAR-4 > 100 µM

COC(=O)C(Cc1c(C2Nc3ccccc3C2CC(NC(C)=O)C(=O)OC)[nH]c2ccccc12)NC(C)=O (stereo not drawn)
inactive: MDA-N > 100 µM | HOP-62 > 100 µM | RPMI-8226 > 100 µM | U-251 > 100 µM | NCI-H226 > 100 µM | HT-29 > 100 µM | ACHN > 100 µM | T47D > 100 µM | SK-MEL-5 > 100 µM | OVCAR-3 > 100 µM | NCI-H460 > 100 µM | Malme-3M > 100 µM | SNB-19 > 100 µM | EKVX > 100 µM | TK-10 > 100 µM | CAKI-1 > 100 µM | SN12C > 100 µM | SK-OV-3 > 100 µM

CCOC(=O)c1nc2cc(F)cc(F)c2[nH]c1=O
inactive: MDA-N > 100 µM | HOP-62 > 100 µM | RPMI-8226 > 100 µM | U-251 > 100 µM | NCI-H226 > 100 µM | HT-29 > 100 µM | ACHN > 100 µM | T47D > 100 µM | SK-MEL-5 > 100 µM | OVCAR-3 > 100 µM | NCI-H460 > 100 µM | SNB-19 > 100 µM | TK-10 > 100 µM | CAKI-1 > 100 µM | SN12C > 100 µM | SK-OV-3 > 100 µM | OVCAR-4 > 100 µM

CCOC(=O)CC(=O)Nc1cccc2nc[nH]c12
inactive: MDA-N > 100 µM | HOP-62 > 100 µM | RPMI-8226 > 100 µM | U-251 > 100 µM | NCI-H226 > 100 µM | HT-29 > 100 µM | ACHN > 100 µM | T47D > 100 µM | SK-MEL-5 > 100 µM | OVCAR-3 > 100 µM | NCI-H460 > 100 µM | Malme-3M > 100 µM | SNB-19 > 100 µM | EKVX > 100 µM | CAKI-1 > 100 µM | SN12C > 100 µM | SK-OV-3 > 100 µM | OVCAR-4 > 100 µM

CC(=O)Nc1ccc(C(=O)NN2C(=O)CSC2c2ccc(O)cc2)cc1 (stereo not drawn)
inactive: MDA-N > 100 µM | HOP-62 > 100 µM | RPMI-8226 > 100 µM | U-251 > 100 µM | NCI-H226 > 100 µM | HT-29 > 100 µM | ACHN > 100 µM | T47D > 100 µM | SK-MEL-5 > 100 µM | OVCAR-3 > 100 µM | NCI-H460 > 100 µM | SNB-19 > 100 µM | EKVX > 100 µM | TK-10 > 100 µM | SN12C > 100 µM | SK-OV-3 > 100 µM | OVCAR-4 > 100 µM

COC1CC(OC2C(C)OC(OC3C(C)OC(OC4C(C)OC(O[C@H]5CC[C@@]6(C)C(=CC[C@]7(O)[C@@H]6C[C@@H](OC(=O)/C=C(\C)C(C)C)[C@@]6(C)[C@]7(O)CC[C@@]6(O)C(C)=O)C5)CC4OC)CC3OC)CC2OC)OC(C)C1O (stereo partly drawn)
inactive: MDA-N > 12.5 µM | HOP-62 > 12.5 µM | RPMI-8226 4.02 µM | U-251 > 12.5 µM | NCI-H226 > 12.5 µM | HT-29 > 12.5 µM | ACHN > 12.5 µM | T47D > 12.5 µM | SK-MEL-5 11.2 µM | OVCAR-3 > 12.5 µM | Malme-3M > 12.5 µM | SNB-19 > 12.5 µM | EKVX > 12.5 µM | TK-10 > 12.5 µM | CAKI-1 > 12.5 µM | SN12C > 12.5 µM | SK-OV-3 > 12.5 µM | OVCAR-4 > 12.5 µM

CCO/C=N\C1=C(C#N)SC2=N/C(=C\c3ccc(OC)cc3)C(=O)N21
inactive: MDA-N > 100 µM | RPMI-8226 > 100 µM | U-251 75.3 µM | NCI-H226 > 100 µM | HT-29 > 100 µM | ACHN 94.2 µM | T47D > 100 µM | SK-MEL-5 > 100 µM | Malme-3M > 100 µM | SNB-19 83.6 µM | EKVX 60.1 µM | TK-10 58.2 µM | CAKI-1 > 100 µM | SN12C > 100 µM | SK-OV-3 96.8 µM | OVCAR-4 15.4 µM

COc1ccc(C2SCC(=O)N2NC2=NC(=O)CC(=O)N2)cc1 (stereo not drawn)
inactive: MDA-N > 100 µM | HOP-62 > 100 µM | RPMI-8226 > 100 µM | U-251 > 100 µM | NCI-H226 > 100 µM | HT-29 > 100 µM | ACHN > 100 µM | T47D > 100 µM | SK-MEL-5 > 100 µM | OVCAR-3 > 100 µM | NCI-H460 > 100 µM | Malme-3M > 100 µM | TK-10 > 100 µM | CAKI-1 > 100 µM | SN12C > 100 µM | SK-OV-3 > 100 µM | OVCAR-4 > 100 µM
